Assay results as given in ChEMBL document CHEMBL3885881, “DrugMatrix”.

Species: Rattus norvegicus
Test: DrugMatrix - Regimen: Daily Repeat
Format: toxicity, organism-based, Sprague-Dawley
Design: regimen Daily Repeat, gender Male, age 6-8 weeks
Settings: in vivo, po, route oral GAVAGE, vehicle .5 % CMC; for BASOPHIL / EOSINOPHIL / ERYTHROCYTE COUNT / HEMATOCRIT / HEMOGLOBIN / LEUKOCYTE COUNT / LYMPHOCYTE / MEAN CORPUSCULAR HEMOGLOBIN / MEAN CORPUSCULAR HEMOGLOBIN CONCENTRATION / MEAN CORPUSCULAR VOLUME / NEUTROPHIL / PLATELET COUNT: tissue Blood; for ALANINE AMINOTRANSFERASE / ALBUMIN / ALKALINE PHOSPHATASE / ASPARTATE AMINOTRANSFERASE / BLOOD UREA NITROGEN / CHLORIDE / CHOLESTEROL / CREATINE PHOSPHOKINASE / CREATININE / GLUCOSE / PHOSPHORUS / POTASSIUM / SODIUM / TOTAL BILIRUBIN / TOTAL PROTEIN: tissue Plasma
[1] = 0 mg/kg, 72 h, dose level Control, time 3 day
[2] = 0 mg/kg, 120 h, dose level Control, time 5 day
[3] = 22 mg/kg, 72 h, dose level High, time 3 day
[4] = 22 mg/kg, 120 h, dose level High, time 5 day
[5] = […], 72 h, dose 2.4 mg/Kg, dose level Low, time 3 day
[6] = […], 120 h, dose 2.4 mg/Kg, dose level Low, time 5 day

Cc1nc2n(c(=O)c1CCN1CCC(c3noc4cc(F)ccc34)CC1)CCCC2 [RISPERIDONE]
BASOPHIL [1]: 0% | EOSINOPHIL [1]: 0% | ERYTHROCYTE COUNT [1]: 6.19 x10E6/uL | HEMATOCRIT [1]: 36.94% | HEMOGLOBIN [1]: 14.58 G/DL | LEUKOCYTE COUNT [1]: 11.54 x10E3/uL | LYMPHOCYTE [1]: 84.8% | MEAN CORPUSCULAR HEMOGLOBIN [1]: 23.58 pg | MEAN CORPUSCULAR HEMOGLOBIN CONCENTRATION [1]: 39.44 G/DL | MEAN CORPUSCULAR VOLUME [1]: 59.76 fL | NEUTROPHIL [1]: 13.8% | PLATELET COUNT [1]: 1068.8 x10E3/uL | ALANINE AMINOTRANSFERASE [1]: 38.17 u/L | ALBUMIN [1]: 3.88 G/DL | ALKALINE PHOSPHATASE [1]: 391.33 u/L | ASPARTATE AMINOTRANSFERASE [1]: 69.83 u/L | BLOOD UREA NITROGEN [1]: 15 mg/dL | CHLORIDE [1]: 104.17 MEQ/L | CHOLESTEROL [1]: 72.17 mg/dL | CREATINE PHOSPHOKINASE [1]: 174.33 u/L | CREATININE [1]: 0.58 mg/dL | GLUCOSE [1]: 192.67 mg/dL | PHOSPHORUS [1]: 10.52 mg/dL | POTASSIUM [1]: 6.8 MEQ/L | SODIUM [1]: 149.67 MEQ/L | TOTAL BILIRUBIN [1]: 0.78 mg/dL | TOTAL PROTEIN [1]: 6.28 G/DL | BASOPHIL [2]: 0% | EOSINOPHIL [2]: 0.17% | ERYTHROCYTE COUNT [2]: 6.72 x10E6/uL | HEMATOCRIT [2]: 40.02% | HEMOGLOBIN [2]: 15.83 G/DL | LEUKOCYTE COUNT [2]: 9.5 x10E3/uL | LYMPHOCYTE [2]: 87.17% | MEAN CORPUSCULAR HEMOGLOBIN [2]: 23.57 pg | MEAN CORPUSCULAR HEMOGLOBIN CONCENTRATION [2]: 39.62 G/DL | MEAN CORPUSCULAR VOLUME [2]: 59.55 fL | NEUTROPHIL [2]: 11% | PLATELET COUNT [2]: 1053.67 x10E3/uL | ALANINE AMINOTRANSFERASE [2]: 26.33 u/L | ALBUMIN [2]: 4.02 G/DL | ALKALINE PHOSPHATASE [2]: 316.67 u/L | ASPARTATE AMINOTRANSFERASE [2]: 61.33 u/L | BLOOD UREA NITROGEN [2]: 18.67 mg/dL | CHLORIDE [2]: 108 MEQ/L | CHOLESTEROL [2]: 65.17 mg/dL | CREATINE PHOSPHOKINASE [2]: 161.17 u/L | CREATININE [2]: 0.75 mg/dL | GLUCOSE [2]: 177.33 mg/dL | PHOSPHORUS [2]: 9.72 mg/dL | POTASSIUM [2]: 6.18 MEQ/L | SODIUM [2]: 150.5 MEQ/L | TOTAL BILIRUBIN [2]: 0.68 mg/dL | TOTAL PROTEIN [2]: 6.55 G/DL | BASOPHIL [3]: 0% | EOSINOPHIL [3]: 0% | ERYTHROCYTE COUNT [3]: 6.13 x10E6/uL | HEMATOCRIT [3]: 38.1% | HEMOGLOBIN [3]: 15.27 G/DL | LEUKOCYTE COUNT [3]: 13.67 x10E3/uL | LYMPHOCYTE [3]: 90% | MEAN CORPUSCULAR HEMOGLOBIN [3]: 24.93 pg | MEAN CORPUSCULAR HEMOGLOBIN CONCENTRATION [3]: 40.1 G/DL | MEAN CORPUSCULAR VOLUME [3]: 62.17 fL | NEUTROPHIL [3]: 7.67% | PLATELET COUNT [3]: 999.33 x10E3/uL | ALANINE AMINOTRANSFERASE [3]: 31.33 u/L | ALBUMIN [3]: 3.77 G/DL | ALKALINE PHOSPHATASE [3]: 390.33 u/L | ASPARTATE AMINOTRANSFERASE [3]: 54 u/L | BLOOD UREA NITROGEN [3]: 13.67 mg/dL | CHLORIDE [3]: 103.67 MEQ/L | CHOLESTEROL [3]: 59 mg/dL | CREATINE PHOSPHOKINASE [3]: 158.67 u/L | CREATININE [3]: 0.6 mg/dL | GLUCOSE [3]: 179 mg/dL | PHOSPHORUS [3]: 10.93 mg/dL | POTASSIUM [3]: 6.37 MEQ/L | SODIUM [3]: 148.67 MEQ/L | TOTAL BILIRUBIN [3]: 0.6 mg/dL | TOTAL PROTEIN [3]: 5.97 G/DL | BASOPHIL [4]: 0% | EOSINOPHIL [4]: 0.33% | ERYTHROCYTE COUNT [4]: 6.82 x10E6/uL | HEMATOCRIT [4]: 40.93% | HEMOGLOBIN [4]: 16.13 G/DL | LEUKOCYTE COUNT [4]: 11.33 x10E3/uL | LYMPHOCYTE [4]: 91.67% | MEAN CORPUSCULAR HEMOGLOBIN [4]: 23.67 pg | MEAN CORPUSCULAR HEMOGLOBIN CONCENTRATION [4]: 39.47 G/DL | MEAN CORPUSCULAR VOLUME [4]: 60 fL | NEUTROPHIL [4]: 6.67% | PLATELET COUNT [4]: 1104.33 x10E3/uL | ALANINE AMINOTRANSFERASE [4]: 28.33 u/L | ALBUMIN [4]: 4.03 G/DL | ALKALINE PHOSPHATASE [4]: 320.33 u/L | ASPARTATE AMINOTRANSFERASE [4]: 53.33 u/L | BLOOD UREA NITROGEN [4]: 15.33 mg/dL | CHLORIDE [4]: 106 MEQ/L | CHOLESTEROL [4]: 70 mg/dL | CREATINE PHOSPHOKINASE [4]: 145.33 u/L | CREATININE [4]: 0.63 mg/dL | GLUCOSE [4]: 170.67 mg/dL | PHOSPHORUS [4]: 10.97 mg/dL | POTASSIUM [4]: 6.6 MEQ/L | SODIUM [4]: 151.67 MEQ/L | TOTAL BILIRUBIN [4]: 0.7 mg/dL | TOTAL PROTEIN [4]: 6.6 G/DL | BASOPHIL [5]: 0% | EOSINOPHIL [5]: 0% | ERYTHROCYTE COUNT [5]: 5.99 x10E6/uL | HEMATOCRIT [5]: 36.13% | HEMOGLOBIN [5]: 14.37 G/DL | LEUKOCYTE COUNT [5]: 11.03 x10E3/uL | LYMPHOCYTE [5]: 90% | MEAN CORPUSCULAR HEMOGLOBIN [5]: 23.97 pg | MEAN CORPUSCULAR HEMOGLOBIN CONCENTRATION [5]: 39.77 G/DL | MEAN CORPUSCULAR VOLUME [5]: 60.27 fL | NEUTROPHIL [5]: 9% | PLATELET COUNT [5]: 1243 x10E3/uL | ALANINE AMINOTRANSFERASE [5]: 32 u/L | ALBUMIN [5]: 3.73 G/DL | ALKALINE PHOSPHATASE [5]: 332.67 u/L | ASPARTATE AMINOTRANSFERASE [5]: 58 u/L | BLOOD UREA NITROGEN [5]: 11.33 mg/dL | CHLORIDE [5]: 103.67 MEQ/L | CHOLESTEROL [5]: 65.67 mg/dL | CREATINE PHOSPHOKINASE [5]: 164.67 u/L | CREATININE [5]: 0.6 mg/dL | GLUCOSE [5]: 180.67 mg/dL | PHOSPHORUS [5]: 11.33 mg/dL | POTASSIUM [5]: 6.43 MEQ/L | SODIUM [5]: 148.33 MEQ/L | TOTAL BILIRUBIN [5]: 0.4 mg/dL | TOTAL PROTEIN [5]: 5.8 G/DL | BASOPHIL [6]: 0% | EOSINOPHIL [6]: 0.67% | ERYTHROCYTE COUNT [6]: 6.09 x10E6/uL | HEMATOCRIT [6]: 37.37% | HEMOGLOBIN [6]: 14.97 G/DL | LEUKOCYTE COUNT [6]: 13.13 x10E3/uL | LYMPHOCYTE [6]: 81.67% | MEAN CORPUSCULAR HEMOGLOBIN [6]: 24.6 pg | MEAN CORPUSCULAR HEMOGLOBIN CONCENTRATION [6]: 40.1 G/DL | MEAN CORPUSCULAR VOLUME [6]: 61.4 fL | NEUTROPHIL [6]: 13% | PLATELET COUNT [6]: 1107.33 x10E3/uL | ALANINE AMINOTRANSFERASE [6]: 33.33 u/L | ALBUMIN [6]: 3.8 G/DL | ALKALINE PHOSPHATASE [6]: 344.67 u/L | ASPARTATE AMINOTRANSFERASE [6]: 57.33 u/L | BLOOD UREA NITROGEN [6]: 15.67 mg/dL | CHLORIDE [6]: 102 MEQ/L | CHOLESTEROL [6]: 70.33 mg/dL | CREATINE PHOSPHOKINASE [6]: 148.33 u/L | CREATININE [6]: 0.53 mg/dL | GLUCOSE [6]: 178.67 mg/dL | PHOSPHORUS [6]: 10.7 mg/dL | POTASSIUM [6]: 6.43 MEQ/L | SODIUM [6]: 148.33 MEQ/L | TOTAL BILIRUBIN [6]: 0.47 mg/dL | TOTAL PROTEIN [6]: 6.07 G/DL
